Legend:
[1] = system: dextran sodium sulfate (DSS)-induced colitis; test: Dextran sodium sulfate (DSS)-induced colitis model, disease activity index (DAI); format: in vivo, mice (C57Bl/6NHsd); conditions: for anti-IBD activity: disease activity index (DAI): once daily oral
Description: (§1) Colitis was induced using either 2.5% DSS (FIG. 1A, FIG. 1B, and FIG. 1C) or 4.0% DSS (FIG. 1D, FIG. 1E, FIG. 1F, FIG. 1G, and FIG. 1H) resulting in the characteristic development of diarrhea, rectal bleeding and body weight loss. These parameters were evaluated daily, scored and summated to compute a disease activity index (DAI). Mice received once daily oral treatment with test article or vehicle beginning on Study Day 0 and continuing through Study Day 7. […] All data depicted as mean+/−SEM. 2-way ANOVA, *p<0.05, **p<0.01, ***p<0.001;
as §1, with “using” for “using either 2.5% DSS (FIG. 1A, FIG. 1B, and FIG. 1C) or”, “DSS” for “DSS (FIG. 1D, FIG. 1E, FIG. 1F, FIG. 1G, and FIG. 1H)”, “6.” for “7.”
(§2) Six-week old male C57Bl/6NHsd mice were challenged with 4.0% DSS in drinking water from Study Day 0-5 followed by exposure to freshwater, inducing severe acute colitis. Oral (S)-LTP592 was administered once daily beginning on study day 0 at 1 mg/kg, 10 mg/kg and 100 mg/kg 2-PMPA molar equivalent doses. (FIG. 4A) 100 mg/kg eq. […] (S)-LTP592, while GCPII was only 40% inhibited at the non-efficacious dose of 1 mg/kg eq. (n=8/group; **p<0.01 2-tailed t-test). (FIG. 4C) Strikingly, 100 mg/kg eq. […] (FIG. 4D, FIG. 4E, and FIG. 4F) Efficacy of 100 mg/kg eq. (S)-LTP592 in the DSS-colitis model was driven by improvements in (FIG. 4C) stool score and (FIG. 4D) bleeding score (n=15/group; ***p<0.001, *p<0.05 2-way ANOVA);
(§3) Six-week old male C57Bl/6NHsd mice were challenged with 4.0% DSS in drinking water from study day 0-6 followed by exposure to freshwater. Oral (S)-LTP592 was administered once daily beginning on study day 0 at 100 mg/kg 2-PMPA molar equivalent doses. (FIG. 5A, FIG. 5B, and FIG. 5C) 100 mg/kg eq. […] (FIG. 5D, FIG. 5E, FIG. 5F, and FIG. 5G) A subset of mice (n=8/group) were euthanized on study day 5, prior to fulminant colitis. Their colons were harvested and processed for flow cytometry. […] All DSS-induced changes in myeloid inflammatory cell populations were attenuated by (S)-IBD3540 treatment (n=8-9/group, **p<0.01, *p<0.05, 2-tailed t-test).
Six- to eight-week-old male C57BM6NHsd mice were acquired from Harlan Laboratories/Envigo (Indianapolis, IN). Animals were housed in the Johns Hopkins animal facility under controlled temperature (25° C.) and photoperiod (12-hour-light/12-hour-dark cycle) with access to standard diet and water (or specified DSS-containing drinking water) ad libitum. All animal studies were approved by the Animal Care and Use Committee of Johns Hopkins University, Baltimore, MD and adhered to all of the applicable institutional and governmental guidelines for the humane treatment of laboratory animals. Mice were housed 4-5 per cage and allowed to acclimate to their environment for at least 5 days before inclusion in experiments. Mice (n=5-30/group) were randomized by body weight into equivalent experimental groups: (a) DSS with vehicle or (b) DSS with test article. Acute colitis was induced by administration of 2.5%-4.0% (w/v) DSS (MW 40,000-50,000; Affymetrix Santa Clara, CA) in the drinking water for 5 days, followed by exposure to freshwater for two days. Daily oral (PO) dosing of vehicle or test article was initiated on study day 0 and was continued until sacrifice on study day 7. […]

[2] = target: recombinant human GCPII (Homo sapiens, UniProt Q04609); test: GCPII inhibition, radiosubstrate based assay; format: biochemical; conditions: GCPII IC50 ratio, (S)- vs (R)-enantiomer
Chain of recombinant human GCPII (Q04609 whole entry): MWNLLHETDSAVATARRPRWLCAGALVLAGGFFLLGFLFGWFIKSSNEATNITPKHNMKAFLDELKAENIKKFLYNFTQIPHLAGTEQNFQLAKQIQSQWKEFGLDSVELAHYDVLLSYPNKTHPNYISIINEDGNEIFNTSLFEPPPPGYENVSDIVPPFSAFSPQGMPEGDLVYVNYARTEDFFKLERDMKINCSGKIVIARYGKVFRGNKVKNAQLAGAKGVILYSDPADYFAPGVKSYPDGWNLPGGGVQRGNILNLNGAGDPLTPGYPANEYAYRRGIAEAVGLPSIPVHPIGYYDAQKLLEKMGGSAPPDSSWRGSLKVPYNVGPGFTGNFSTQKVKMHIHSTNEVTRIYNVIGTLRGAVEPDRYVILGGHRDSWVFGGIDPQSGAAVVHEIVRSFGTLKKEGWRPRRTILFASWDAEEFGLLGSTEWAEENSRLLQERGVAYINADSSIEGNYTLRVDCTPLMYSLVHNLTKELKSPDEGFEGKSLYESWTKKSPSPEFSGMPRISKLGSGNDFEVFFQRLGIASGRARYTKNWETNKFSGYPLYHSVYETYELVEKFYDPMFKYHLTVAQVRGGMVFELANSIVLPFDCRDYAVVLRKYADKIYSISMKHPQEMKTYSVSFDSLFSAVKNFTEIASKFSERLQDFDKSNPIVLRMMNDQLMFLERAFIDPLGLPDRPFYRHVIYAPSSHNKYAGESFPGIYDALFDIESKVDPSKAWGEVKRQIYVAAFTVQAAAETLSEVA
Description: FIG. 3A, FIG. 3B, FIG. 3C, and FIG. 3D show IC50 values for selected bile acid GCPII inhibitor conjugates. IC50s were determined for selected inhibitors using a previously described radiosubstrate based assay employing recombinant human GCPII. Rojas et al., 2002.
Glutamate Carboxypeptidase II (GCPII) is a metallopeptidase that catalyzes the hydrolysis of N-acetylated aspartate-glutamate (NAAG) to N-acetyl aspartate (NAA) and glutamate and cleaves terminal glutamate moieties sequentially from folate polyglutamate (Ristau et al., 2013; Mesters et al, 2006; Slusher et al, 2013). In certain embodiments, the presently disclosed compounds of formula (I) are GCPII inhibitors. As used herein, a GCPII inhibitor is a molecule that decreases or inhibits the activity of GCPII. The modulation of the activity of GCPII may be detected by use of an assay for the intrinsic N-acetylated alpha-linked acidic dipeptidase (AALADase) activity of GCPII (Tang et al, 2003; Robinson et al 1987: Lupoid et al., 2002; U.S. Patent App. Pub. No. 20110064657). Inhibition curves may be determined using semi-log plots and IC50 values determined at the concentration at which enzyme activity was inhibited by 50%.

[3] = target: T1, GCPII (Mus musculus, UniProt O35409); test: GCPII enzymatic activity in murine colon tissue (radioenzymatic assay); format: in vivo, mice; conditions: colon collected 4-hour post dose on study day 6
T1 construct: from tissue; host or cells: mouse proximal colon
T1 sequence (O35409 whole entry): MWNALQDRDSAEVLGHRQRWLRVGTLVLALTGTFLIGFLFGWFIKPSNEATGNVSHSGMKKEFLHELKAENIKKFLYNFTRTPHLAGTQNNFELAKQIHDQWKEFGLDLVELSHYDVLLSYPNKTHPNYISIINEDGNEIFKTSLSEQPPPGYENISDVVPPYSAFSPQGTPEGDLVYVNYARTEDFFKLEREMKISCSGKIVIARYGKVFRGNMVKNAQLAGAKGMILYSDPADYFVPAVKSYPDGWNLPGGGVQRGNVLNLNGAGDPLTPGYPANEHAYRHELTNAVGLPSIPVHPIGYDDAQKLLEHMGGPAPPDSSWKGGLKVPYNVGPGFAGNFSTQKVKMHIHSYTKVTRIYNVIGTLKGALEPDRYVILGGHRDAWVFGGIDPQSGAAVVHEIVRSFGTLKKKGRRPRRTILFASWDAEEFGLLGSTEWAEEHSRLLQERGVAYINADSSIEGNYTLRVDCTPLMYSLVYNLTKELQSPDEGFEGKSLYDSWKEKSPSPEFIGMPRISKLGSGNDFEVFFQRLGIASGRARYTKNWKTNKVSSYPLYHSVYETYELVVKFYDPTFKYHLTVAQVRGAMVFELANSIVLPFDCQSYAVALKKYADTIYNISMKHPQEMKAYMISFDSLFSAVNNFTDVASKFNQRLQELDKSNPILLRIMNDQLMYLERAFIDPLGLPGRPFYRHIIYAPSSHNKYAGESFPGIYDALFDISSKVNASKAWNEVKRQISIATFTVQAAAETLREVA
Description: as §2
A 5-mm length location-matched segment of proximal colon was harvested and flash-frozen following euthanasia on study day 6 of DSS-induced colitis, 4-hours after the final dose with vehicle or compound. Glutamate carboxypeptidase activity was measured using a radioenzymatic assay that was optimized and described previously. Rojas et al., 2002; Robinson et al., 1987.

[4] = system: myeloid inflammatory cell populations in colon; test: Flow cytometry of colonic lamina propria mononuclear cells in DSS colitis; format: in vivo, mice; conditions: 4.0% DSS, 100 mg/kg eq. oral, study day 5
Description: as §3
On DSS study day 5, a subset of mice (n=8-9/group) were euthanized and colons were processed for flow cytometry. Specifically, the distal 3 cm of colon was separated, mesenteric fat dissected away and intestinal contents removed. Then colon was transected longitudinally, washed with PBS, and minced thoroughly. Minced colon tissues were transferred into 5 ml HBSS with 10 mM HEPES containing 5% FBS and 0.2 mg/ml collagenase D (Sigma). Tissues were digested at 37° C. for 20 min with constant agitation (250 r.p.m.), then vigorously vortexed for 20 s. The resulting cell suspension containing LPMCs was filtered through a 70-μm nylon cell strainer and washed with 10 ml PBS. […]

[5] = 4.0% DSS, Study Day 0-6, DAI on Study Days 4 through 6
[6] = 2.5% or 4.0% DSS, Study Day 0-7, 10 to 100 mg/kg 2-PMPA molar equivalent dose, DAI on Study Days 6 and 7
[7] = 4.0% DSS, 100 mg/kg eq. oral, study day 6

`CC(C)C[C@H](NC(=O)N[C@@H](CCC(=O)OCOC(=O)CC[C@@H](C)[C@H]1CCC2C3CC[C@@H]4C[C@H](O)CC[C@]4(C)C3C[C@H](O)[C@@]21C)C(=O)O)C(=O)O` (stereo partly drawn) [IS-102-138, (2S,6S,16R)-6-Carboxy-16-((3R,10S,12S,13R,17R)-3,12-dihydroxy-10,13-dimethylhexadecahydro-1H-cyclopenta[a]phenanthren-17-yl)-2-isobutyl-4,9,13-trioxo-10,12-dioxa-3,5-diazaheptadecanoic acid] was tested, and the “anti-IBD activity: disease activity index (DAI)” value [1, 5] was “significant reductions in DAI”.

For `C[C@H](CCC(=O)OCOC(=O)c1ccc(CC(CCC(=O)NO)C(=O)O)cc1)C1CCC2C3CC[C@@H]4C[C@H](O)CC[C@]4(C)C3C[C@H](O)[C@@]21C` (some centres unmarked) [TT-220420], the “anti-IBD activity: disease activity index (DAI)” value [1, 5] was “significant reductions in DAI”.

With `C[C@H](CCC(=O)OCOC(=O)CCC(CP(=O)(O)O)C(=O)O)C1CCC2C3CC[C@@H]4C[C@H](O)CC[C@]4(C)C3CC[C@@]21C` (mixture of isomers) [LTP582, 5-((((4R)-4-((3R,10S,13R)-3-Hydroxy-10,13-dimethylhexadecahydro-1H-cyclopenta[a]phenanthren-17-yl)pentanoyl)oxy)methoxy)-5-oxo-2-(phosphonomethyl)pentanoic acid] the “anti-IBD activity: disease activity index (DAI)” value [1, 6] was “inactive”.

For `C[C@H](CCNC(=O)CCC(CP(=O)(O)O)C(=O)O)[C@H]1CCC2C3CC[C@@H]4C[C@H](O)CC[C@]4(C)C3C[C@H](O)[C@@]21C` (stereo partly drawn) [IS-101-077, 5-(((3R)-3-((3R,10S,12S,13R,17R)-3,12-Dihydroxy-10,13-dimethylhexadecahydro-1H-cyclopenta[a]phenanthren-17-yl)butyl)amino)-5-oxo-2-(phosphonomethyl)pentanoic acid], the “anti-IBD activity: disease activity index (DAI)” value [1, 6] was “significant reductions in DAI”.

In the case of `C[C@H](CCC(=O)OCOC(=O)CCC(CP(=O)(O)O)C(=O)O)C1CCC2C3C(CC[C@@]21C)[C@@]1(C)CC[C@@H](O)C[C@H]1C[C@@H]3O` (stereo partly drawn) [LTP1054, 5-((((4R)-4-((3R,7S,12S,13R)-3,12-Dihydroxy-10,13-dimethylhexadecahydro-1H-cyclopenta[a]phenanthren-17-yl)pentanoyl)oxy)methoxy)-5-oxo-2-(phosphonomethyl) pentanoic acid], the “anti-IBD activity: disease activity index (DAI)” value [1, 6] is reported as “inactive”.

For `C[C@H](CCC(=O)OCOC(=O)CCC(CP(=O)(O)O)C(=O)O)C1CCC2C3C(C[C@H](O)[C@@]21C)[C@@]1(C)CC[C@@H](O)C[C@H]1C[C@H]3O` (mixture of isomers) [LTP588, 5-Oxo-2-(phosphonomethyl)-5-((((4R)-4-((3R,7R,10S,12S,13R)-3,7,12-trihydroxy-10,13-dimethylhexadecahydro-1H-cyclopenta[a]phenanthren-17-yl)pentanoyl)oxy)methoxy) pentanoic acid], the “anti-IBD activity: disease activity index (DAI)” value [1, 6] was “inactive”.

With `C[C@H](CCC(=O)OCOC(=O)CC[C@H](CP(=O)(O)O)C(=O)O)C1CCC2C3CC[C@@H]4C[C@H](O)CC[C@]4(C)C3C[C@H](O)[C@@]21C` (stereo partly drawn) [(S)-LTP592] the bleeding score ([1]; 4.0% DSS, 100 mg/kg eq. oral) was “improvements”, the stool score ([1]; 4.0% DSS, 100 mg/kg eq. oral) was “improvements” and the “colon histology (scored by a blinded pathologist)” value [1, 7] was “significantly improved”. For the same molecule, the colon length [1, 7] was “normalization of colon length”, the “number and depth of ulcerations and degree of inflammatory infiltration” value [1, 7] was “reduced” and the “efficacy in DSS colitis” value ([1]; 4.0% DSS, oral once daily, 1 mg/kg eq.) was “non-efficacious”. The “efficacy in DSS colitis” value ([1]; 4.0% DSS, oral once daily, 10 mg/kg eq.) was “effective”, the “colitis severity (DAI)” value ([1]; 4.0% DSS, oral once daily, 100 mg/kg eq., as early as study day 3) was “significantly decreased” and the “potency relative to (R)-LTP592” value [2] was 150 fold. The “inhibition of GCPII enzymatic activity in colon tissue” value (from here on “inhibition”) ([3]; 1 mg/kg eq. oral) was 40%, the “inhibition” value ([3]; 10 mg/kg eq. oral) was greater than 75% and the “inhibition” value ([3]; 100 mg/kg eq. oral) was greater than 75%. The “DSS-induced changes in myeloid inflammatory cell populations (CD11b+ white blood cells, neutrophils, monocytes, transitioning monocytes)” value [4] was “attenuated”.

`C[C@H](CCNC(=O)CCC(CP(=O)(O)O)C(=O)O)[C@H]1CCC2C3C(CC[C@@]21C)[C@@]1(C)CC[C@@H](O)C[C@H]1C[C@@H]3O` (stereo partly drawn) [IS-101-020, 5-(((3R)-3-((3R,7S,10S,13R,17R)-3,7-Dihydroxy-10,13-dimethylhexadecahydro-1H-cyclopenta[a]phenanthren-17-yl)butyl)amino)-5-oxo-2-(phosphonomethyl)pentanoic acid] was tested, and the “anti-IBD activity: disease activity index (DAI)” value [1, 6] was “significant reductions in DAI”.

— patent US12698306B2, “Bile acid-GCPII inhibitor conjugates to treat inflammatory diseases, including inflammatory bowel disease (IBD)” (The Johns Hopkins University, priority 2020, dated 2026)
